Experimental data taken from patent EP4692072A1, “PHOTOCHROMIC COMPOUND, PROPARGYL ALCOHOL COMPOUND, CURABLE COMPOSITION, OPTICAL ARTICLE, LENS, AND SPECTACLES” (TOKUYAMA CORPORATION, priority 2023, dated 2024).

Experiments:
[1] = Photochromic properties of photochromic laminate (plastic lens) prepared by coating method; type: physicochemical; conditions: 40 µm photochromic layer on thiourethane lens, 0.25 mmol compound per 100 g monomers, after color development
Text: (§1) First, the photochromic compound obtained in Example 1, a photoinitiator, and a polymerizable compound were mixed to obtain a curable composition.
(§2) Polyethylene glycol dimethacrylate (average molecular weight: 736): 42 parts by mass • Polyethylene glycol dimethacrylate (average molecular weight: 536): 12 parts by mass • Trimethylolpropane trimethacrylate: 38 parts by mass γ-methacryloyloxypropyl trimethoxysilane: 2 parts by mass Glycidyl methacrylate: 1 part by mass
(§3) Note that the photochromic compound was added to the curable composition so that the amount of the photochromic compound was 0.25 mmol based on 100 g of the total amount of the radical-polymerizable monomers.
(§4) Phenylbis(2,4,6-trimethylbenzoyl)phosphine oxide (photoinitiator: Omnirad 819): 0.3 parts by mass Ethylene bis(oxyethylene) bis[3-(5-tert-butyl-4-hydroxy-m-tolyl)propionate] (stabilizer, Irganox 245): 1 part by mass Bis(1,2,2,6,6-pentamethyl-4-piperidyl) sebacate: 3 parts by mass Leveling agent (L7001) manufactured by Dow Corning Toray Co.,Ltd.: 0.1 part by mass
(§5) First, a thiourethane-based plastic lens having a central thickness of 2 mm and a refractive index of 1.60 was prepared as the optical substrate. Note that this thiourethane-based plastic lens was pre-treated by alkaline etching with a 10% sodium hydroxide aqueous solution at 50°C for 5 minutes, followed by sufficient washing with distilled water.
(§6) A surface of the above-described plastic lens was coated with a moisture-curable primer (product name: TR-SC-P, manufactured by Tokuyama Corporation) at a rotation frequency of 70 rpm for 15 seconds, followed by 1000 rpm for 10 seconds, using a spin coater (1H-DX2, manufactured by MIKASA CO., LTD), Subsequently, about 2 g of the photochromic curable composition obtained above was spin-coated at a rotation frequency of 60 rpm for 40 seconds, followed by 600 rpm for 10 to 20 seconds, to form a photochromic coating layer with a film thickness of 40 µm.
(§7) The lens with the surface coated with the photochromic curable composition (photochromic coating layer) was irradiated with light using a metal halide lamp with an output power of 200 mW/cm^2 in a nitrogen gas atmosphere for 90 seconds to cure the coating film. Subsequently, the lens was further heated at 110°C for 1 hour to prepare a photochromic laminate having a photochromic layer.
In the same manner as in Example 26, photochromic laminates were prepared using the photochromic compounds obtained in Examples 2 to 25.
(§8) • [1] Maximum Absorption Wavelength (λmax): The maximum absorption wavelength after color development, measured using a spectrophotometer (instantaneous multichannel photodetector MCPD3000) manufactured by Otsuka Electronics Co., Ltd. was used as an indicator for the color tone during the color development. • [2] 23°C Color Optical Density (A23): A difference between an absorbancy measured after light irradiation at 23°C for 300 seconds {ε(300)} and an absorbancy without light irradiation ε(0) at the maximum absorption wavelength was used as an indicator for the color optical density. […] 23°C color fading half-life [τ1/2 (sec.)]: A time required for the absorbancy of the sample at the maximum absorption wavelength to decrease to 1/2 of {ε(300)-ε(0)} when the light irradiation was terminated after the light irradiation at 23°C for 300 seconds, was used as an indicator for the color fading speed. The shorter this time, the higher the color fading speed. • [4] Residual rate (A120/A0×100): The obtained photochromic plastic lens was subjected to accelerated deterioration using a xenon weather meter X25 manufactured by Suga Test Instruments Co., Ltd. for 120 hours. Subsequently, the color optical density was evaluated before and after the test, then a color optical density before the test (A0) and a color optical density after the test (A120) were measured, and a ratio (A120/A0) was defined as a residual rate. The residual rate was used as an indicator for a color developing durability. […]

[2] = Accelerated deterioration (xenon weather meter X25, 120 hours) of photochromic laminate prepared by coating method; type: physicochemical; conditions: 0.25 mmol per 100 g monomers, A120/A0×100 after 120 hours xenon weather meter
Text: as §1, §2, §3, §4, §5, §6, §7
as §8, with “durability. The higher the residual rate, the higher the color developing durability.” for “durability.”

| Structure (SMILES) | Maximum absorption wavelength [1] [nm] | Residual rate [2] [%] | also measured |
| --- | --- | --- | --- |
| CCCCN(c1ccccc1)c1ccc(C2(c3ccc(C)cc3)C=Cc3c4c(c5cc(N6CCOCC6)c(OC)cc5c3O2)-c2ccccc2C4(CC)CC)cc1 (centres unmarked) [Example 10] | 512 | 60 | Maximum absorption wavelength ([1]; listed as Formula (62)): 598 nm; Residual rate ([2]; listed as Formula (62)): 64% |
| CCCc1ccc(C2(c3ccc(N(C)c4ccccc4)cc3)C=Cc3c4c(c5cc(Sc6c(C)cccc6C)c(OC)cc5c3O2)-c2ccccc2C42CC(C)(C)CC(C)(C)C2)cc1 (centres unmarked) [Example 5] | 509 | 68 | Maximum absorption wavelength ([1]; listed as Formula (51)): 591 nm |
| CCCC1(CCC)c2ccccc2-c2c1c1c(c3cc(OC)c(-c4ccc(OC)cc4OC)cc23)OC(c2ccc(N(C)c3ccccc3)cc2)(c2ccc(OC)c(F)c2)C=C1 (centres unmarked) [Example 7] | 496 | 61 | Maximum absorption wavelength ([1]; listed as Formula (55)): 603 nm |
| COc1ccc(C2(c3ccc(N(C)c4ccccc4)cc3)C=Cc3c4c(c5cc(-c6ccc(N7CCOCC7)cc6)c(OC)cc5c3O2)-c2ccccc2C4(C)C)cc1 (centres unmarked) [Example 1] | 502 | 65 | Maximum absorption wavelength ([1]; listed as Formula (37)): 601 nm |
| CCCCC1(CCCC)c2cc(-c3ccc(OC(C)C)cc3)ccc2-c2c1c1c(c3cc(OC)ccc23)OC(c2ccc(N(C)c3ccccc3)cc2)(c2ccc(OC)c(F)c2)C=C1 (centres unmarked) [Example 21] | 489 | 60 | Maximum absorption wavelength ([1]; listed as Formula (83)): 609 nm |
| CCCC1(CCC)c2ccccc2-c2c1c1c(c3cc(OC)c(-c4ccc(N(C)c5ccccc5)cc4)cc23)OC(c2ccc(C)cc2)(c2ccc(N(C)c3ccccc3)cc2)C=C1 (centres unmarked) [Example 24] | 504 | 62 | Maximum absorption wavelength ([1]; listed as Formula (86)): 599 nm |
| COc1ccc(N(C)c2ccc(C3(c4ccc(CCO[Si](C)(C)CC[Si](O[Si](C)(C)C)(O[Si](C)(C)C)O[Si](C)(C)C)cc4)C=Cc4c5c(c6cc(N(C)c7ccccc7)c(OC)cc6c4O3)-c3ccc(C(F)(F)F)cc3C53CCC(C)(C)CC3)cc2)cc1 (centres unmarked) [Example 60] | 523 | 62 | Maximum absorption wavelength ([1]; listed as Formula (121)): 582 nm; Residual rate ([2]; listed as Formula (121)): 64% |
| CCC1(CC)CCC2(CC1)c1cc(OC(F)(F)F)ccc1-c1c2c2c(c3cc(OC)ccc13)OC(c1ccc(N(C)c3ccccc3)cc1)(c1ccc(OC)c(C)c1)C=C2 (centres unmarked) [Example 16] | 472 | 57 | Maximum absorption wavelength ([1]; listed as Formula (77)): 584 nm |
| COCCOCCOCCOCCC1(CCOCCOCCOCCOC)c2cc(C(F)(F)F)ccc2-c2c1c1c(c3cc(OC)c(OC)cc23)OC(c2ccc(OC)cc2)(c2ccc(N(C)c3ccccc3)cc2)C=C1 (centres unmarked) [Example 51] | 482 | 60 | Maximum absorption wavelength ([1]; listed as Formula (89)): 603 nm |
| COCCCCC1(CCCCOC)c2cc(Sc3c(C)cccc3C)ccc2-c2c1c1c(c3cc(OC)ccc23)OC(c2ccc(OC)cc2)(c2ccc(N(C)c3ccc(OC)cc3)cc2)C=C1 (centres unmarked) [Example 11] | 477 | 60 | Maximum absorption wavelength ([1]; listed as Formula (65)): 614 nm |
| CCCC1(CCC)c2ccccc2-c2c1c1c(c3cc(OC)c(-c4ccc(OC)cc4OC)cc23)OC(c2ccc(C)cc2)(c2ccc(N(C)c3ccccc3)cc2)C=C1 (centres unmarked) [Example 19] | 494 | 64 | Maximum absorption wavelength ([1]; listed as Formula (80)): 604 nm |
| COCCCCC1(CCCCOC)c2ccccc2-c2c1c1c(c3cc(-c4ccc(OC)cc4OC)c(OC)cc23)OC(c2ccc(N(C)c3ccccc3)cc2)(c2ccc3c(c2)CCO3)C=C1 (centres unmarked) [Example 62] | 477 | 61 | Maximum absorption wavelength ([1]; listed as Formula (124)): 587 nm |
| COCCC1(CCOC)c2ccccc2-c2c1c1c(c3cc(OC)c(-c4ccc(N(c5ccccc5)c5ccccc5)cc4)cc23)OC(c2ccc(Oc3ccccc3)cc2)(c2ccc(N(C)c3ccccc3)cc2)C=C1 (centres unmarked) [Example 23] | 506 | 60 | Maximum absorption wavelength ([1]; listed as Formula (85)): 609 nm |
| CCCC1(CCC)c2cc(OC)ccc2-c2c1c1c(c3cc(OC)ccc23)OC(c2ccc(OC)cc2)(c2ccc(N(C)c3ccccc3)cc2)C=C1 (centres unmarked) [Example 3] | 470 | 55 | Maximum absorption wavelength ([1]; listed as Formula (46)): 612 nm |
| COCCOCCC1(CCOCCOC)c2cc(C)ccc2-c2c1c1c(c3cc(C)ccc23)OC(c2ccc(N(C)c3ccc(F)cc3)cc2)(c2ccc(OC)c(OC)c2)C=C1 (centres unmarked) [Example 8] | 474 | 60 | Maximum absorption wavelength ([1]; listed as Formula (57)): 597 nm |
| CCCC1(CCC)c2cc(OC(F)(F)F)ccc2-c2c1c1c(c3cc(OC)c(Sc4c(C)cccc4C)cc23)OC(c2ccc(N(C)c3ccccc3)cc2)(c2ccc(OC)c(OC)c2)C=C1 (centres unmarked) [Example 57] | 493 | 65 | Maximum absorption wavelength ([1]; listed as Formula (110)): 615 nm |
